Paper PMC6471197, “Biological Activity and In Silico Study of 3-Modified Derivatives of Betulin and Betulinic Aldehyde” (International Journal of Molecular Sciences, 2019)
≈ marks a conversion by molar mass, not a printed value.

Columns and labels:
[1] = test system: MV-4-11 (biphenotypic B myelomonocytic leukaemia) cell line; assay: MTT antiproliferative assay on MV-4-11 cells; format: cell-based, human; settings: for IC50: Homo sapiens, MV4-11
Description: (§1) The applied human cell lines such as MV-4-11 (biphenotypic B myelomonocytic leukaemia), A549 (lung adenocarcinoma), Du-145 (prostate), Hs294T (melanoma), MCF-7 (breast adenocarcinoma) and MCF-10A (normal mammary gland) were obtained from the American Type Culture Collection (ATCC, Rockville, MD, USA). The all cell lines are maintained at the Cell Culture Collection of the Institute of Immunology and Experimental Therapy (Wrocław, Poland). The cells were plated in 96-well plates (Sarstedt, Newton, MA, USA) at a density of 1 × 10^4 cells per well in 100 µL of appropriate culture medium overnight. Biphenotypic B myelomonocytic leukaemia (MV-4-11) cells were cultured in RPMI 1640 medium (Gibco, Scotland, UK) with GlutaMAX (Thermo-Fisher Scientific, Warsaw, Poland) adjusted to contain 1.0 mM sodium pyruvate (Sigma-Aldrich, Chemie GmbH, Steinheim, Germany). Human lung adenocarcinoma (A549) cells were cultured in mixture RPMI 1640 and Opti-MEM medium (Gibco, Scotland, UK) supplemented with GlutaMAX (ThermoFisher Scientific, Warsaw, Poland) and 2mM L-glutamine adjusted to contain 1.0 mM sodium pyruvate. Human prostate (Du-145) and human breast adenocarcinoma (MCF-7) cells were cultured in Eagle medium (IIET, Wrocław, Poland), supplemented with 2 mM L-glutamine adjusted to contain 1.0 mM sodium pyruvate. Human melanoma (Hs294T) cells were cultured in Dulbecco medium (Gibco, Scotland, UK) supplemented with 2 mM L-glutamine. The normal human mammary gland cells (MCF-10A) were cultured in Ham’s F-12 medium containing 2 mM L-glutamine, 5% horse serum, epidermal growth factor EGF (100 μL/100 mL of medium), hydrocortisone (1 mL/ 100 mL of medium), insulin (100 μL/100 mL of medium) and cholera toxin (0.1 mL/100 mL of medium). All applied culture media except MCF-10A were supplemented with 10% of FBS (MV-4-11 cultured with FBS derived from Sigma-Aldrich, Chemie GmbH, Steinheim, Germany, the other cell lines FBS HyClone Thermo-Fisher Scientific, Warsaw, Poland) and streptomycin (100 µg/mL), penicillin (100 U/mL) (both from Polfa, Tarchomin, Poland). The tested cell lines were grown at 37 °C in humid atmosphere saturated with 5% CO2. In our studies were used two assays for determination the cytotoxic activity in vitro of triterpene derivatives. By dissolving 1 mg of each tested compound in 100 µL of DMSO, stock solutions at a 10 mg/mL were obtained. Next, the stock solutions were diluted in appropriate culture medium to reach the required concentrations of compounds ranging from 0.1 to 100 µg/mL. The MTT assay was used for the cytotoxicity screening against biphenotypic B myelomonocytic leukaemia (MV-4-11). The SRB assay was performed for adherent cells such as A549, Du-145, Hs294T, MCF-7 and MCF-10A. Both assays were carried as described by Wietrzyk et al.. The triterpenes in given concentration were examined in triplicates in each experiment, which was repeated 3 times. The results of anticancer activity in vitro were presented as an IC50 in µM. Cisplatin and betulin 1 were used as reference substances.

[2] = test system: A549 (lung adenocarcinoma); assay: SRB antiproliferative assay on A549 cells; format: cell-based, human; settings: Homo sapiens, A549
Description: as §1

[3] = test system: MCF-10A (normal mammary gland); assay: SRB antiproliferative assay on MCF-10A cells; format: cell-based, human; settings: Neg = negative in the concentration used; for IC50: Homo sapiens, MCF-10A
Description: as §1

[4] = test system: MCF-7 (breast adenocarcinoma); assay: SRB antiproliferative assay on MCF-7 cells; format: cell-based, human; settings: Homo sapiens, MCF7; SRB assay
Description: as §1

Du-145 (prostate) = assay: SRB antiproliferative assay on Du-145 cells; format: cell-based, human; settings: Homo sapiens, DU-145; SRB assay
Description: as §1

Hs294T (melanoma) = assay: SRB antiproliferative assay on Hs294T cells; format: cell-based, human; settings: Homo sapiens, Hs 294T; SRB assay
Description: as §1

[5] = test system: PC-3, Jurkat, HeLa, HepG2 and HT-29; parameters: method as in PMID 20494586; settings: range over PC-3, Jurkat, HepG2, HT-29, read-out: IC50 in the tested cancer cell lines; cited from earlier work
lung A549 cell line = test system: lung A549 cell line; parameters: method as in PMID 20460723; settings: cited from earlier work
[6] = test system: MCF-7/ADR cells (multidrug-resistant breast cancer); parameters: method as in PMID 25817774; settings: read-out: IC50 towards MCF-7/ADR cells; cited from earlier work
[7] = parameters: method as in PMID 17851638; settings: cited from earlier work
[8] = MTT assay, Neg = negative in the concentration used

SMILES: C=C(C)C1CC[C@]2(C=O)CC[C@]3(C)C(CCC4[C@@]5(C)CC[C@H](OC(=O)C#CC6CC6)C(C)(C)C5CC[C@]43C)C12 (stereo partly drawn) [Compound 17, 3-(3-Cyclopropyl-2-propynoyl)betulinic aldehyde]
- IC50 [1, 8]: 86.7 ± 42.8 µM

SMILES: C=C(C)C1CC[C@]2(C=O)CC[C@]3(C)C(CCC4[C@@]5(C)CC[C@H](OC(=O)CC)C(C)(C)C5CC[C@]43C)C12 (stereo partly drawn) [Compound 15, 3-Propanoylbetulinic aldehyde]
- IC50 [1, 8]: 71.8 ± 22.9 µM

SMILES: C=C(C)C1CC[C@]2(CO)CC[C@]3(C)C(CCC4[C@@]5(C)CC[C@H](OC(=O)CC)C(C)(C)C5CC[C@]43C)C12 (stereo partly drawn) [Compound 5, 3-Propanoylbetulin]
- IC50 [1, 8]: 38.9 ± 11.8 µM

SMILES: C#CCCOC(=O)O[C@H]1CC[C@@]2(C)C(CC[C@]3(C)C2CCC2C4C(C(=C)C)CC[C@]4(C=O)CC[C@]23C)C1(C)C (stereo partly drawn) [Compound 24, 3-(3-Butynyloxycarbonyl)betulinic aldehyde]
- IC50 [1, 8]: 28.3 ± 7.4 µM

SMILES: C=CC(=O)O[C@H]1CC[C@@]2(C)C(CC[C@]3(C)C2CCC2C4C(C(=C)C)CC[C@]4(CO)CC[C@]23C)C1(C)C (stereo partly drawn) [Compound 6, 3-(2-Propenoyl)betulin]
- IC50 [2]: 23.3 ± 1.8 µM
- IC50 [1, 8]: 4.2 ± 1.2 µM
- IC50 [3]: 120 ± 15.3 µM
- IC50 [4]: 45.9 ± 3.8 µM
- IC50 (Du-145 (prostate)): 84.5 ± 39.4 µM

SMILES: C=C(C)C1CC[C@]2(CO)CC[C@]3(C)C(CCC4[C@@]5(C)CC[C@H](OC(=O)OCC)C(C)(C)C5CC[C@]43C)C12 (stereo partly drawn) [Compound 10, 3-Ethoxycarbonylbetulin]
- IC50 [1, 8]: 20 ± 1.5 µM

SMILES: C#CCCOC(=O)O[C@H]1CC[C@@]2(C)C(CC[C@]3(C)C2CCC2C4C(C(=C)C)CC[C@]4(CO)CC[C@]23C)C1(C)C (stereo partly drawn) [Compound 14, 3-(3-Butynyloxycarbonyl)betulin]
- IC50 [2]: 33.8 ± 2.8 µM
- IC50 [1, 8]: 8.9 ± 0.9 µM
- IC50 (Hs294T (melanoma)): 164 ± 15.8 µM
- Antiproliferative Activity IC50 MCF-10A [3]: Neg
- IC50 [4]: 39.2 ± 6.9 µM
- IC50 (Du-145 (prostate)): 126 ± 13.2 µM

SMILES: C=C(C)C1CC[C@]2(CO)CC[C@]3(C)C(CCC4[C@@]5(C)CC[C@H](OC(=O)C#Cc6ccccc6)C(C)(C)C5CC[C@]43C)C12 (stereo partly drawn) [Compound 8, 3-Phenylpropynoylbetulin]
- MV-4-11 IC50 [1, 8]: Neg

SMILES: C=CCOC(=O)O[C@H]1CC[C@@]2(C)C(CC[C@]3(C)C2CCC2C4C(C(=C)C)CC[C@]4(CO)CC[C@]23C)C1(C)C (stereo partly drawn) [Compound 12, 3-Allyloxycarbonylbetulin]
- IC50 [1, 8]: 20.1 ± 4.7 µM

SMILES: C#CCOC(=O)O[C@H]1CC[C@@]2(C)C(CC[C@]3(C)C2CCC2C4C(C(=C)C)CC[C@]4(CO)CC[C@]23C)C1(C)C (stereo partly drawn) [Compound 13, 3-Propargyloxycarbonylbetulin]
- IC50 [2]: 14.9 ± 2.5 µM
- IC50 [1, 8]: 7.4 ± 1.7 µM
- IC50 (Hs294T (melanoma)): 82.7 ± 8.4 µM
- Antiproliferative Activity IC50 MCF-10A [3]: Neg
- IC50 [4]: 28.9 ± 4.6 µM
- IC50 (Du-145 (prostate)): 95.1 ± 16.8 µM

SMILES: C=CC(=O)O[C@H]1CC[C@@]2(C)C(CC[C@]3(C)C2CCC2C4C(C(=C)C)CC[C@]4(C=O)CC[C@]23C)C1(C)C (stereo partly drawn) [Compound 16, 3-(2-Propenoyl)betulinic aldehyde]
- IC50 [2]: 15.1 ± 5 µM
- IC50 [1, 8]: 5.8 ± 1.8 µM
- fold more potent than 3-acetylbetulinic aldehyde 3 against MV-4-11 ([1]; MV-4-11 cells): 6 fold
- IC50 (Hs294T (melanoma)): 74.4 ± 7.3 µM
- IC50 [3]: 113 ± 11.7 µM
- IC50 [4]: 60.4 ± 4.4 µM
- IC50 (Du-145 (prostate)): 67.1 ± 4.6 µM

SMILES: C=C(C)C1CC[C@]2(C=O)CC[C@]3(C)C(CCC4[C@@]5(C)CC[C@H](OC(C)=O)C(C)(C)C5CC[C@]43C)C12 (stereo partly drawn) [Compound 3, 3-acetylbetulinic aldehyde, reference compound]
- IC50 [1, 8]: 35 ± 12.8 µM

SMILES: C=C(C)[C@@H]1CC[C@]2(C(=O)O)CC[C@]3(C)[C@H](CC[C@@H]4[C@@]5(C)CC[C@H](O)C(C)(C)[C@@H]5CC[C@]43C)[C@@H]12 [betulinic acid]
- IC50 [5]: 12.8 to 36.4 µM
- IC50 against lung A549 cell line (lung A549 cell line): 8.4 µg/mL (≈ 18.4 µM)
- IC50 [6]: 38.5 µM
- water solubility [7]: < 1 µM
